How the values were obtained:
[1] = tested on: J.RT3/SN45 (SN45 TCR-reconstituted Jurkat T-cell line); settings: J.RT3/SN45 responder T cells; cited from earlier work
Text: J.RT3, a TCR-deficient Jurkat cell line, was transfected with SN45-derived TCRα and TCRβ complementary DNAs in a previous study. The SN45 TCR-reconstituted T-cell line (J.RT3/SN45) was used as responder T cells to compare antigenic activities among C14nef4-related analogs.

[2] = tested on: SN45 TCR; experiment: Biolayer interferometry of SN45 TCR with lipopeptide-bound MHC class I complexes; assay type: binding, rhesus monkey
Text: Cell-based analyses may be influenced by undefined factors related to the use of live cells and serum components. Therefore, we first sought to validate the separation of the two groups at the molecular level. To this end, we investigated the kinetics of TCR–lipopeptide interactions in biolayer interferometry experiments. […] All refolded complexes were purified by size-exclusion and anion-exchange chromatography, and nearly identical elution profiles were obtained for each lipopeptide sample. […]
Figure 1 Biolayer interferometry analysis of interactions between the SN45 TCR and lipopeptide-bound Mamu-B∗05104 complexes. The molecular interaction kinetics of SN45 TCR and lipopeptide-bound Mamu-B∗05104 complexes were assessed using the Octet RED96 system, in which biotinylated SN45 TCR proteins were immobilized on streptavidin-coated sensors, and serially diluted Mamu-B∗05104 complexes were applied as analytes. […]
Biomolecular interaction analyses were performed using the Octet RED96 system equipped with a streptavidin-conjugated biosensor (Sartorius), according to the manufacturer’s instructions. […] A shift in the interference pattern was monitored in real time during this period. […]

Question: What does the source list for C14-Gly1-Gly2-Ala3-Ile4 [C14nef4]?
Answer: antigenic activity group (highly / poorly antigenic) [1]: highly antigenic; antigenic group by biolayer interferometry (highly / poorly antigenic) ([2]; lipopeptide-bound Mamu-B∗05104 complex as analyte on immobilized SN45 TCR): highly antigenic

Question: With “C14-Gly1-Gly2-Ala3-Ile4-Ser5 [C14nef5, reference compound]” as the substance, how does the “binding to the SN45 TCR” value ([2]; C14nef5-bound Mamu-B∗098 complex as analyte, negative control) read?
Answer: failed to bind

Reference: article PMC12804144, “Lipopeptide ligands captured by MHC class I molecules undergo dynamic conformational changes that affect their antigenic strength” (The Journal of Biological Chemistry, 2025)
